Source: publication PMC12339163, “Combining Plant Bioactives With Antibiotics for Enhanced Antibiofilm Activity Against Uropathogenic Staphylococcus spp. and Cytotoxicity Evaluation” (Advances in Pharmacological and Pharmaceutical Sciences, 2025)
≈ marks a conversion by molar mass, not a printed value. Where “and” joins values, the source holds several entries; their conditions need not be identical. Identical values can stand only once. Like-named read-outs stand apart in the source and are kept apart here.

Experiments:
S. aureus biofilm = assay: Biofilm eradication assay (MBEC, MTT); type: cell-based, Staphylococcus aureus; details: Staphylococcus aureus, 24 h; geometric mean, S. aureus (n = 3)
Procedure: (§1) The determination of the biofilm eradication potential of NPs and ATBs was performed as previously described. Briefly, 100 µL of bacterial inoculum (1.5 × 10^6 CFU/mL) and 100 µL of MHB + 1% glucose were introduced into the microplate, incubated at 37°C for 24 h, and the microplate was gently emptied and washed three times with PBS. Then, 200 µL of ATBs or NPs at respective concentrations ranging from 8 to 1024 µg/mL and from 16 to 2048 µg/mL were incubated at 37°C for 24 h. Once incubation was completed, the microplate was processed as described above, and the percentage of biofilm eradication was calculated using the formula below. The minimal biofilm eradicating concentration (MBEC) was recorded as the lowest concentration of the test sample that reduces 100% of biofilm:(2) % biofilm eradication=ODcontrol−ODblank−ODtest−ODblank/ODcontrol−ODblank×100.

S. epidermidis biofilm = assay: Biofilm inhibition assay (MBIC, MTT); type: cell-based, Staphylococcus epidermidis; details: Staphylococcus epidermidis, 24 h; geometric mean, S. epidermidis (n = 3)
Procedure: The biofilm formation inhibitory activity of NPs and ATBs was carried out according to the method previously described. A total of 100 µL of bacterial inoculum (1.5 × 10^6 CFU/mL) was used, and 100 µL of each sample was added to the microplate to achieve final concentrations ranging from 0.25 µg/mL to 128 µg/mL for ATBs and from 8 µg/mL to 1024 µg/mL for NPs. Then, the microplate was incubated at 37°C for 24 h. After incubation, the plates were gently emptied and washed three times with a phosphate buffer solution at pH 7.2. Then, the MTT solution (0.5 mg/mL) prepared in PBS was introduced into each well, and the microplate was further incubated at 37°C for 24 h. Untreated wells containing bacterial suspension and MHB supplemented with 1% glucose were considered positive controls, and wells containing only MHB+1% glucose without bacteria were used as blanks. After incubation, the MTT solution was aspirated, then 150 µL of DMSO was introduced to dissolve the formazan crystal formed by viable bacteria, and the optical density (OD) was measured at 570 nm using a microplate reader (VERSA-max). The percentage of biofilm inhibition was calculated using the formula below, and the minimal biofilm inhibitory concentration (MBIC) was recorded as the lowest concentration of NPs or ATBs that inhibited 100% of biofilm:(1) % biofilm inhibition=ODcontrol−ODblank−ODtest−ODblank/ODcontrol−ODblank×100.

[1] = tested on: planktonic cells of Staphylococcus saprophyticus; assay: Checkerboard combination assay, planktonic cells; type: cell-based; details: Staphylococcus saprophyticus, S. saprophyticus, mean
S. saprophyticus biofilm = assay: Biofilm eradication assay (MBEC, MTT); type: cell-based, Staphylococcus saprophyticus; details: Staphylococcus saprophyticus, 24 h; geometric mean, S. saprophyticus (n = 3)
Procedure: as §1

S. epidermidis = assay: MIC and MBC, broth microdilution; type: cell-based, Staphylococcus epidermidis; details: Staphylococcus epidermidis, geometric mean, S. epidermidis (n = 3); for MBC: read-out: MBC; for MIC: read-out: MIC
Procedure: Seven clinical isolates of Staphylococcus spp. including 2 S. aureus, 3 S. saprophyticus, and 2 S. epidermidis were used. They were isolated from urine samples in our previous study. Two reference strains (S. aureus ATCC1026 and S. epidermidis ATCC35984) obtained from the American Type Culture Collection were also included. They were kept in the mixture of glycerol and Mueller Hinton Broth (MHB) (1:1) at −20°C, and the activation was achieved using the streak technique on Mueller Hinton agar (MHA) medium.
The MICs of ATBs and NPs were determined by the broth microdilution method as previously described. NPs and ATBs were, respectively, prepared at 4096 µg/mL and 512 µg/mL and serially diluted twofold with MHB in a 96-well microplate at a volume of 100 µL. Then, the wells were filled with 100 µL of inoculum (1.5 × 10^6 CFU/mL) to give final concentrations ranging from 1024 µg/mL to 0.5 µg/mL and 128 µg/mL to 0.062 µg/mL of NPs and ATBs, respectively. The microplates were incubated for 24 h at 37°C. Wells containing only bacterial inoculum were used as the negative control. After incubation, a volume of 40 µL of INT solution (0.2 mg/mL) was added to each well, and the microplate was incubated at 37°C for 30 min. Viable bacteria cells change the yellow dye of INT to a pink color. The MIC was considered as the lowest concentration of the sample at which there was no change in the coloration of the medium, corresponding to the complete inhibition of microbial growth.
All tests were performed in triplicate.

[2] = tested on: Staphylococcus aureus biofilm; assay: Checkerboard combination assay, biofilm inhibition; type: cell-based
Procedure: (§2) The effect of the combination of ATBs with NPs on biofilm formation was evaluated by determining the FICI, as described above for planktonic cells, except that the MHB was supplemented with 1% glucose.
(§3) The lowest MBICs of ATBs or NPs that inhibited metabolic activity in the biofilm were determined as described above. The FICI was used to perform the effect of combination and calculated as follows: FICI: (MBIC of ATBs in combinations/MBIC of ATBs alone) + (MBIC of NP in the combinations/MBIC of NP alone). FICI was interpreted as indicated above.

[3] = tested on: Staphylococcus epidermidis biofilm; assay: Checkerboard combination assay, biofilm inhibition; type: cell-based
Procedure: as §2, §3

[4] = tested on: Staphylococcus saprophyticus biofilm; assay: Checkerboard combination assay, biofilm inhibition; type: cell-based
Procedure: as §2, §3

[5] = antibiotic alone, S. aureus biofilm inhibition
[6] = S. saprophyticus, biofilm inhibition, mean
[7] = antibiotic alone, S. saprophyticus biofilm inhibition
[8] = antibiotic alone, S. epidermidis biofilm inhibition

| MIC ([1]; 24 h, read-out: MIC alone, ATB) | MIC ([1]; read-out: MIC alone, ATB) | MIC (S. epidermidis) | MIC ([1]; 24 h, read-out: MIC alone, NPs) | MIC ([1]; read-out: MIC alone, NPs) | Compound | minimal effective concentration (S. aureus biofilm) | minimal effective concentration (S. epidermidis biofilm) | minimal effective concentration (S. saprophyticus biofilm) | MBC (S. epidermidis; antibiotics) | MBIC alone, ATB [2, 5] | MBIC alone, ATB ([3]; antibiotic alone, S. epidermidis biofilm inhibition, listed as Dox) | MBIC alone, ATB [4, 6] | MBIC alone, ATB [4, 7] | MBC (S. epidermidis; natural products) | MBIC alone, NPs ([2]; natural product alone, S. aureus biofilm inhibition) | MBIC alone, NPs ([3]; natural product alone, S. epidermidis biofilm inhibition) | MBIC alone, NPs ([4]; natural product alone, S. saprophyticus biofilm inhibition) | MBIC alone, ATB ([2]; S. aureus, biofilm inhibition, mean) | MBIC alone, ATB ([3]; S. epidermidis, biofilm inhibition, mean) | MBIC alone, ATB [3, 8] |
| --- | --- | --- | --- | --- | --- | --- | --- | --- | --- | --- | --- | --- | --- | --- | --- | --- | --- | --- | --- | --- |
| 32.2 µg/mL | 32.2 µg/mL | 7 µg/mL (≈ 15.8 µM) | – | – | C[C@H]1c2cccc(O)c2C(=O)C2=C(O)[C@]3(O)C(=O)C(C(N)=O)=C(O)[C@@H](N(C)C)[C@@H]3[C@@H](O)[C@@H]21 [Doxycycline, doxycycline] | 16 µg/mL | 3.08 µg/mL | 9.33 µg/mL | 8 µg/mL (≈ 18 µM) | 2.16 µg/mL | 3.08 µg/mL and 3.41 µg/mL | 0.5 µg/mL | 0.5 µg/mL | – | – | – | – | – | – | – |
| – | – | 427 µg/mL (≈ 2510 µM) | 427 µg/mL | 427 µg/mL | O=C(O)c1cc(O)c(O)c(O)c1 [Gallic acid, 3,4,5-trihydroxybenzoic acid] | 299 µg/mL | 512 µg/mL | 299 µg/mL | – | – | – | – | – | > 1020 µg/mL | 512 µg/mL | 512 µg/mL | 426.66 µg/mL | – | – | – |
| 64.7 µg/mL | 64.7 µg/mL | 42.7 µg/mL (≈ 93.9 µM) | – | – | Cc1nnc(SCC2=C(C(=O)O)N3C(=O)[C@@H](NC(=O)Cn4cnnn4)[C@H]3SC2)s1 [Cefazolin, cefazolin] | 42.7 µg/mL | 8.66 µg/mL | 10.7 µg/mL | 139 µg/mL (≈ 305 µM) | 4.66 µg/mL | – | 8.33 µg/mL | 8.33 µg/mL | – | – | – | – | 4.66 µg/mL | 8.66 µg/mL | 8.66 µg/mL |
| 4.66 µg/mL | 4.66 µg/mL | 32.7 µg/mL (≈ 44.5 µM) | – | – | CC[C@H]1OC(=O)[C@H](C)[C@@H](O[C@H]2C[C@@](C)(OC)[C@@H](O)[C@H](C)O2)[C@H](C)[C@@H](O[C@@H]2O[C@H](C)C[C@H](N(C)C)[C@H]2O)[C@](C)(O)C[C@@H](C)C(=O)[C@H](C)[C@@H](O)[C@]1(C)O [Erythromycin, erythromycin] | 42.8 µg/mL | 24 µg/mL | 29.3 µg/mL | > 128 µg/mL | 42.83 µg/mL | – | – | 27.33 µg/mL | – | – | – | – | – | – | 24 µg/mL |
